Read-outs that look alike come from different tables or passages of the source. One block for each compound: values may come before it.
Target: T1, CFTR (Homo sapiens, UniProt P13569, DEL508-508)
T1 construct: endogenous in cells; host or cells: primary human bronchial epithelial cells from CF subjects (F508del/MF-HBE), differentiated at air-liquid interface
Assay: HBE assay: Ussing chamber assay of CFTR-mediated short-circuit currents
Format: cell-based
Details: for EC50: read-out: HBE EC50; for activation at 10 µM: read-out: HBE Activity at 10 μM (%)
Summary of the method: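 CFTR-mediated Isc (μA/cm²) equals the peak response to apical 20 μM forskolin minus the residual after a 20 μM each BPO/GlyH-101/CFTR inhibitor 172 cocktail, recorded in Ussing chambers at Vhold 0 mV, 37 °C, pH 7.4, with 30 μM apical amiloride. Cells were F508del/MF HBE cultures preincubated 18-24 h with corrector (concentration range or 10 μM) plus 1 μM ivacaftor in 20% human serum.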

[1] = Table 10, read-out: HBE Max activity (%)
[2] = Table 11, read-out: HBE Max Activity (%)
[3] = Table 13, read-out: HBE Max Activity (%)
[4] = Table 12, read-out: HBE Max Activity (%)
[5] = HBE assay, read-out: HBE Max activity (%)

T1 sequence (P13569 with tags, fused parts or gaps DEL508-508): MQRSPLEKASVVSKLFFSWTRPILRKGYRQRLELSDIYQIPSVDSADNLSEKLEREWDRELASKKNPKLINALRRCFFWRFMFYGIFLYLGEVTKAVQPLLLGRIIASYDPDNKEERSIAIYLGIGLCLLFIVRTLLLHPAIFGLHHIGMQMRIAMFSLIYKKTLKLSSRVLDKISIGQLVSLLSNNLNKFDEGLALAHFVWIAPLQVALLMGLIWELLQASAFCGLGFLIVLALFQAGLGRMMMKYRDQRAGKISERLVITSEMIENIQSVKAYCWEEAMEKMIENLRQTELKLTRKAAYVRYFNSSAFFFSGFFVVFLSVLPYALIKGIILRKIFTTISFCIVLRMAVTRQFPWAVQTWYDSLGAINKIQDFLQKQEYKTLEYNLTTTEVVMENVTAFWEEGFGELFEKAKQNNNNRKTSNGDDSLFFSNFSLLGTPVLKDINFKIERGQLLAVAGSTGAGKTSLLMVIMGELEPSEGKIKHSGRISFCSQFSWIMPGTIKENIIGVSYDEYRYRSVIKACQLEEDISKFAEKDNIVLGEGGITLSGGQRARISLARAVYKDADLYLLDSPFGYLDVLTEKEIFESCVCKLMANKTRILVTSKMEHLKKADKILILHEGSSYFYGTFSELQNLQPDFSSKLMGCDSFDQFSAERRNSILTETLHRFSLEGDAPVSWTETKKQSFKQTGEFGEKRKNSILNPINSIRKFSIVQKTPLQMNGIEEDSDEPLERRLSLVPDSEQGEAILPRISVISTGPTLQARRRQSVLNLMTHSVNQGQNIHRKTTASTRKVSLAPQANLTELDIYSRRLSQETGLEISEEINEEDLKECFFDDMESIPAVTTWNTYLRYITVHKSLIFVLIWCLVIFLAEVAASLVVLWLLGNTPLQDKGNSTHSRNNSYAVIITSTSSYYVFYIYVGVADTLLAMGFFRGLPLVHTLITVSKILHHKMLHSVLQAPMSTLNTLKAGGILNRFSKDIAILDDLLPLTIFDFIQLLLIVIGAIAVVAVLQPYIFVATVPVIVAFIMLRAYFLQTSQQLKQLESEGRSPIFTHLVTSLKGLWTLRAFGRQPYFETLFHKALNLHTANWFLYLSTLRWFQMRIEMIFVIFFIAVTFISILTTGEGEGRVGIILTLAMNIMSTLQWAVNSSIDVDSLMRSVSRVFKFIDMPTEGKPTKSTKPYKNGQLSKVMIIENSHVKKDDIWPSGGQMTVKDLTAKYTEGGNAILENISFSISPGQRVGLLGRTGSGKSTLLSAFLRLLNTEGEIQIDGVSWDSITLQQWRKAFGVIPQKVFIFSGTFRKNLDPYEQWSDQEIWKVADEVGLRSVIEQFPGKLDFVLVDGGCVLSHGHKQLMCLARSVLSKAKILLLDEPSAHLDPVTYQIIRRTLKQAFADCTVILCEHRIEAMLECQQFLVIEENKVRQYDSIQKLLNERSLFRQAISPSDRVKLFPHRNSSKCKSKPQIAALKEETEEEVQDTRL

Structure (SMILES): Cc1cccc(C)c1-c1cc2nc(n1)NS(=O)(=O)c1cccc(c1)C(=O)N(Cc1ccc(N3CCCCC3)cn1)[C@H](CC(C)(C)C)CO2 [Compound 502]
EC50 (Table 10): < 1000 nM | Emax [1]: > 60%

Structure (SMILES): COCCN1CCCC(CN2C(=O)c3cccc(c3)S(=O)(=O)Nc3nc(cc(-c4c(C)cccc4C)n3)OC[C@H]2CC(C)(C)C)C1=O (some centres unmarked) [Compound 641]
EC50 (Table 11): 1000 to 3000 nM | Emax [2]: > 60%

Structure (SMILES): Cc1cccc(C)c1-c1cc2nc(n1)NS(=O)(=O)c1cccc(c1)C(=O)N(Cc1ncc(C3CCN(C)CC3)cn1)[C@H](CC(C)(C)C)CO2 [Compound 631]
EC50 (Table 11): < 1000 nM | Emax [2]: > 60%

Structure (SMILES): Cc1cccc(C)c1-c1cc2nc(n1)NS(=O)(=O)c1cccc(c1)C(=O)N(Cc1ccccc1-c1c[nH]nc1C1CC1)[C@H](CC(C)(C)C)CO2 [Compound 303]
EC50 (Table 10): < 1000 nM | Emax [1]: > 60%

Structure (SMILES): Cc1cccc(C)c1-c1cc2nc(n1)NS(=O)(=O)c1cccc(c1)C(=O)N(Cc1cccc(CC(C)C)n1)[C@H](CC(C)(C)C)CO2 [Compound 583]
EC50 (Table 12): < 1000 nM | Emax [4]: > 60%

Structure (SMILES): Cc1cccc(C)c1-c1cc2nc(n1)NS(=O)(=O)c1cccc(c1)C(=O)N(Cc1ncc(N(C(C)C)C(C)C)cn1)[C@H](CC(C)(C)C)CO2 [Compound 629]
EC50 (Table 11): 3000 to 30000 nM | Emax [2]: > 60%

Structure (SMILES): COCCN(C)c1cccc(CN2C(=O)c3cccc(c3)S(=O)(=O)Nc3nc(cc(-c4c(C)cccc4C)n3)OC[C@H]2CC(C)(C)C)n1 [Compound 488]
EC50 (Table 10): < 1000 nM | Emax [1]: > 60%

Structure (SMILES): Cc1cccc(C)c1-c1cc2nc(n1)NS(=O)(=O)c1cccc(c1)C(=O)N(Cc1cncc(N(C)C3CCC34CCC4)n1)[C@H](CC(C)(C)C)CO2 (some centres unmarked) [Compound 437]
EC50 (Table 12): < 1000 nM | Emax [4]: > 60%

Structure (SMILES): Cc1cccc(C)c1-c1cc2nc(n1)NS(=O)(=O)c1cccc(c1)C(=O)N(Cc1nccc(N3CCOCC3)n1)[C@H](CC(C)(C)C)CO2 [Compound 651]
EC50 (Table 11): < 1000 nM | Emax [2]: > 60%

Structure (SMILES): Cc1cccc(C)c1-c1cc2nc(n1)NS(=O)(=O)c1cccc(c1)C(=O)N(CC(=O)N1C[C@H](C)O[C@@H](C)C1)[C@H](CC(C)(C)C)CO2 [Compound 185]
activation at 10 µM (Table 13): > 600%

Structure (SMILES): Cc1cccc(C)c1-c1cc2nc(n1)NS(=O)(=O)c1cccc(c1)C(=O)N(Cc1cncc(N(C)CC(C)(C)C)c1)[C@H](CC(C)(C)C)CO2 [Compound 281]
activation at 10 µM (Table 12): > 600%

Structure (SMILES): Cc1cccc(C)c1-c1cc2nc(n1)NS(=O)(=O)c1cccc(c1)C(=O)N(Cc1ccc(OC(C)C)nn1)[C@H](CC(C)(C)C)CO2 [Compound 234]
EC50 (Table 13): < 1000 nM | Emax [3]: > 60%

Structure (SMILES): Cc1cccc(C)c1-c1cc2nc(n1)NS(=O)(=O)c1cccc(c1)C(=O)N(C[C@H]1CC(C)(C)CCO1)[C@H](CC(C)(C)C)CO2 (single isomer, unassigned) [Compound 24]
activation at 10 µM (Table 11): > 60%

Structure (SMILES): Cc1cccc(C)c1-c1cc2nc(n1)NS(=O)(=O)c1cccc(c1)C(=O)N(Cc1ccc(OCC(C)(C)C)cn1)[C@H](CC(C)(C)C)CO2 [Compound 768]
EC50 (Table 10): 1000 to 3000 nM | Emax [1]: > 60%

Structure (SMILES): COCCN(C)c1ccc(CN2C(=O)c3cccc(c3)S(=O)(=O)Nc3nc(cc(-c4c(C)cccc4C)n3)OC[C@H]2CC(C)(C)C)nc1 [Compound 504]
EC50 (Table 10): 1000 to 3000 nM | Emax [1]: > 60%

Structure (SMILES): Cc1cccc(C)c1-c1cc2nc(n1)NS(=O)(=O)c1cccc(c1)C(=O)N(CC(=O)N1CCN(C(C)C)CC1)[C@H](CC(C)(C)C)CO2 [Compound 187]
activation at 10 µM (Table 13): > 600%

Structure (SMILES): Cc1cccc(C)c1-c1cc2nc(n1)NS(=O)(=O)c1cccc(c1)C(=O)N(Cc1ccc(N(C)CC(C)(C)C)cn1)[C@H](CC(C)(C)C)CO2 [Compound 497]
EC50 (Table 10): 1000 to 3000 nM | Emax [1]: > 60%

Structure (SMILES): Cc1cccc(C)c1-c1cc2nc(n1)NS(=O)(=O)c1cccc(c1)C(=O)N(Cc1cccc(C(C)C(C)C)n1)[C@H](CC(C)(C)C)CO2 (some centres unmarked) [Compound 871]
EC50 (Table 12): < 1000 nM | Emax [4]: > 60%

Structure (SMILES): Cc1cccc(C(C)C)c1-c1cc2nc(n1)NS(=O)(=O)c1cccc(c1)C(=O)N(Cc1cnc(C3CCOCC3)cn1)[C@H](CC(C)C)CO2 [Compound 242]
activation at 10 µM (Table 12): > 600%

Structure (SMILES): Cc1cccc(C)c1-c1cc2nc(n1)NS(=O)(=O)c1cccc(c1)C(=O)N(Cc1ncc(N3CC4(CCOCC4)C3)cn1)[C@H](CC(C)(C)C)CO2 [Compound 866]
EC50 (Table 13): < 1000 nM | Emax [3]: > 60%

Structure (SMILES): Cc1cccc(C)c1-c1cc2nc(n1)NS(=O)(=O)c1cccc(c1)C(=O)N(Cc1ncc(C3CCCCC3)cn1)[C@H](CC(C)(C)C)CO2 [Compound 644]
EC50 (Table 11): 1000 to 3000 nM | Emax [2]: > 60%

Structure (SMILES): Cc1cccc(C)c1-c1cc2nc(n1)NS(=O)(=O)c1cccc(c1)C(=O)N(Cc1ccc(C3CC4(COC4)C3)cn1)[C@H](CC(C)(C)C)CO2 [Compound 164]
EC50 (Table 13): < 1000 nM | Emax [3]: > 60%

Structure (SMILES): Cc1ccc(CN2C(=O)c3cccc(c3)S(=O)(=O)Nc3nc(cc(-c4c(C)cccc4C)n3)OC[C@H]2CC(C)(C)C)nc1 [Compound 500]
EC50 (Table 10): < 1000 nM | Emax [1]: > 60%

Structure (SMILES): Cc1ccnc(CNC(=O)CN2C(=O)c3cccc(c3)S(=O)(=O)Nc3nc(cc(-c4c(C)cccc4C)n3)OC[C@H]2CC(C)(C)C)c1 [Compound 218]
activation at 10 µM (Table 12): > 600%

Structure (SMILES): Cc1cccc(C)c1-c1cc2nc(n1)NS(=O)(=O)c1cccc(c1)C(=O)N(Cc1ccc(-c3c(C)n[nH]c3C)cc1)[C@H](CC(C)(C)C)CO2 [Compound 143, (11R)-12-{[4-(3,5-dimethyl-1H-pyrazol-4-yl)phenyl]methyl}-6-(2,6-dimethylphenyl)-11-(2,2-dimethylpropyl)-9-oxa-2λ^6-thia-3,5,12,19-tetraazatricyclo[12.3.1.14,8]nonadeca-1(17),4,6,8(19),14(18),15-hexaene-2,2,13-trione]
EC50 (Table 10): < 1000 nM | Emax [1]: > 60%

Structure (SMILES): Cc1cccc(C)c1-c1cc2nc(n1)NS(=O)(=O)c1cccc(c1)C(=O)N(Cc1cncc(N3CCCC3(C)C)c1)[C@H](CC(C)(C)C)CO2 [Compound 282]
activation at 10 µM (Table 12): > 600%

Structure (SMILES): Cc1cccc(C)c1-c1cc2nc(n1)NS(=O)(=O)c1cccc(c1)C(=O)N(Cc1cccc(N3CCC[C@H]3CO)n1)[C@H](CC(C)(C)C)CO2 [Compound 279]
EC50 (Table 12): < 1000 nM | Emax [4]: > 60%

Structure (SMILES): Cc1cccc(C)c1-c1cc2nc(n1)NS(=O)(=O)c1cccc(c1)C(=O)N(Cc1nc(C(C)C)cs1)[C@H](CC(C)(C)C)CO2 [Compound 704]
EC50 (Table 12): < 1000 nM | Emax [4]: > 60%

The remaining lines, values ahead:

EC50 (Table 13): < 1000 nM | Emax [3]: > 60%
Structure (SMILES): Cc1cccc(C)c1-c1cc2nc(n1)NS(=O)(=O)c1cccc(n1)C(=O)N(Cc1cccc(NCC(C)(C)C)n1)[C@H](CC(C)(C)C)CO2 [Compound 1144]

EC50 (HBE assay): < 1000 nM | Emax [5]: > 60%
Structure (SMILES): Cc1cccc(C)c1-c1cc2nc(n1)NS(=O)(=O)c1cccc(c1)C(=O)N(Cc1cncc(N3CCCC3C(C)C)n1)[C@H](CC(C)(C)C)CO2 (some centres unmarked) [Compound 1383]

EC50 (Table 11): 1000 to 3000 nM | Emax [2]: > 60%
Structure (SMILES): Cc1cccc(C)c1-c1cc2nc(n1)NS(=O)(=O)c1cccc(c1)C(=O)N(Cc1cnc(C3CCOCC3)cn1)[C@H](CC(C)(C)C)CO2 [Compound 889]

EC50 (Table 13): 1000 to 3000 nM | Emax [3]: > 60%
Structure (SMILES): Cc1cccc(C)c1-c1cc2nc(n1)NS(=O)(=O)c1cccc(c1)C(=O)N(Cc1ccc(N3CC4(CC(=O)C4)C3)cn1)[C@H](CC(C)(C)C)CO2 [Compound 1056]

EC50 (HBE assay): < 1000 nM | Emax [5]: > 60%
Structure (SMILES): Cc1cccc(C)c1-c1cc2nc(n1)NS(=O)(=O)c1cccc(c1)C(=O)N(Cc1ncc(N3CCC(F)(F)C3)cn1)[C@H](CC1CCC1)CO2 [Compound 1479]

activation at 10 µM (Table 13): > 600%
Structure (SMILES): Cc1cccc(C)c1-c1cc2nc(n1)NS(=O)(=O)c1cccc(c1)C(=O)N(Cc1ncc(Br)cc1C(F)(F)F)[C@H](CC(C)(C)C)CO2 [Compound 1119]

EC50 (HBE assay): < 1000 nM | Emax [5]: > 60%
Structure (SMILES): CO[C@H]1C[C@@H](Oc2cnc(CN3C(=O)c4cccc(c4)S(=O)(=O)Nc4nc(cc(-c5c(C)cccc5C)n4)OC[C@H]3CC(C)C)nc2)C1 [Compound 1432]

EC50 (Table 10): < 1000 nM | Emax [1]: > 60%
Structure (SMILES): Cc1cccc(C)c1-c1cc2nc(n1)NS(=O)(=O)c1cccc(c1)C(=O)N(CC1CCC(N3C[C@@H](C)O[C@@H](C)C3)CC1)[C@H](CC(C)(C)C)CO2 (some centres unmarked) [Compound 913]

EC50 (Table 11): < 1000 nM | Emax [2]: > 60%
Structure (SMILES): Cc1cccc(C)c1-c1cc2nc(n1)NS(=O)(=O)c1cccc(c1)C(=O)N(Cc1cnc(C(C)C)cn1)[C@H](CC(C)(C)C)CO2 [Compound 893]

EC50 (HBE assay): < 1000 nM | Emax [5]: > 60%
Structure (SMILES): Cc1cccc(C)c1-c1cc2nc(n1)NS(=O)(=O)c1cccc(c1)C(=O)N(Cc1ncc(OCC(F)F)cn1)[C@H](CC(C)(C)C)CO2 [Compound 1416]

EC50 (HBE assay): < 1000 nM | Emax [5]: > 60%
Structure (SMILES): Cc1cccc(C)c1-c1cc2nc(n1)NS(=O)(=O)c1cccc(c1)C(=O)N(Cc1ccnc(N3CCC[C@H]3C(C)C)n1)[C@H](CC(C)(C)C)CO2 [Compound 1475]

EC50 (HBE assay): < 1000 nM | Emax [5]: > 60%
Structure (SMILES): CO[C@H]1C[C@@H](Oc2cnc(CN3C(=O)c4cccc(c4)S(=O)(=O)Nc4nc(cc(-c5c(C)cccc5C)n4)OC[C@H]3CC(C)(C)C)nc2)C1 [Compound 1369]

EC50 (HBE assay): < 1000 nM | Emax [5]: > 60%
Structure (SMILES): COCCOc1cnc(CN2C(=O)c3cccc(c3)S(=O)(=O)Nc3nc(cc(-c4c(C)cccc4C)n3)OC[C@H]2CC(C)(C)C)nc1 [Compound 1380]

EC50 (HBE assay): < 1000 nM | Emax [5]: > 60%
Structure (SMILES): Cc1cccc(C)c1-c1cc2nc(n1)NS(=O)(=O)c1cccc(c1)C(=O)N(Cc1cccc(N3CCOC[C@@H]3C)n1)[C@H](CC(C)(C)C)CO2 (stereo in doubt) [Compound 1400]

EC50 (HBE assay): < 1000 nM
Structure (SMILES): Cc1cccc(C)c1-c1cc2nc(n1)NS(=O)(=O)c1cccc(c1)C(=O)N(Cc1cncc(N3CCCC3C(C)C)n1)[C@H](CC(C)(C)C)CO2 (some centres unmarked) [Compound 1384]

— US20240150377A1, “MODULATORS OF CYSTIC FIBROSIS TRANSMEMBRANE CONDUCTANCE REGULATOR” (VERTEX PHARMACEUTICALS INCORPORATED, priority 2020, published 2024)
